Laboratory results reported in patent US12565467B2, “Compounds, compositions, and methods for the treatment of inflammatory, degenerative, and neurodegenerative diseases” (Board of Supervisors of Louisiana State University and …, priority 2015, dated 2026).
“Also recorded” adds a separate entry of the source.

Assays:
[1] = tested on: neuronal cells in primary cultures; assay: NMDA-induced toxicity in neuronal cells in primary culture, MTT assay for cell viability; format: cell-based; conditions: MK-801 with ELV2; NMDA receptor blocker used as control
From the text: FIG. 11. […] In several neurological and neurodegenerative diseases, such as stroke, epilepsy, status epilepticus, traumatic head injury, etc., as well as ophthalmological diseases, such as glaucoma, an excessive presynaptic release of the excitatory neurotransmitter glutamate takes place. As a consequence, glutamate transporters that function to remove extracellular glutamate from astrocytes and neurons are overwhelmed and the NMDA-type glutamate receptor is over-activated. This receptor is a calcium channel that therefore leads to a flooding of calcium into the postsynaptic cell. The overall phenomena is refer to as excitotoxicity that in turn leads to neuronal damage and cell death. MK801 is a known blocker of this receptor used here as a control.
In several neurological and neurodegenerative diseases, such as stroke, epilepsy, status epilepticus, traumatic head injury, etc., as well as ophthalmological diseases, such as glaucoma, an excessive presynaptic release of the excitatory neurotransmitter glutamate takes place. As a consequence, glutamate transporters that function to remove extracellular glutamate from astrocytes and neurons are overwhelmed and the NMDA-type glutamate receptor is over-activated. This receptor is a calcium channel that therefore leads to a flooding of calcium into the postsynaptic cell. The overall phenomena is refer to as excitotoxicity that in turn leads to neuronal damage and cell death. MK801 is a known blocker of this receptor used here as a control.

ischemic stroke (MCAo) = assay: Ischemic stroke model, 2 h MCAo, neurological score during 7 days; format: in vivo; conditions: rat; for activity relative to DHA and NPD1, neurological score (FIG. 12): one hour after 2 h MCAo, 7 days; for in vivo neuroprotective effect (FIG. 12): ICV after 2 hours of MCAo
Experimental: FIG. 12. […] To test the novel elovanoids the experimental design consisted injecting the compounds into the right cerebral ventricle (5 μg/per rat, ICV), one hour after two hours of an ischemic stroke in rats and following thereafter the neurological behavior (neurological score) during 7 days. The protocol in brief was as follows. The injection was made through a surgically implanted metal canula (Alzet) into the right lateral ventricle. Two days later the right middle cerebral artery (MCA) was occluded for 2 h by means of an intraluminal nylon filament (Belayev et al, Traslational Stroke Research, 2010). Then one hour after the compounds were injected dissolved in sterile cerebrospinal fluid. The occlusion was transient performed as follows. The right common carotid artery was exposed through an incision in the neck and was isolated from surrounding tissues. The distal external carotid artery and pterygopalatine arteries were tied. A 4-cm of 3-0 monofilament nylon suture coated with poly-Lysine was introduced into the internal carotid artery and MCA. The suture position was confirmed by advancing the suture 20-22 mm from the common carotid artery bifurcation. Then, the rats were allowed to awaken from anesthesia and returned to their cages. The degree of stroke injury was assessed by neurological assessment of each rat at 60 min after onset of MCAo. […] After 2 hours of MCA occlusion, the rats were re-anesthetized temperature probes were reinserted and the intraluminal suture was removed. The neck incision was closed with silk sutures, and the animals were allowed free access to food and water. […] The methyl ester ELV2-Me is expected to first be hydrolyzed via the actions of esterases, and it may have a more delayed effect, which may be beneficial for a sustainable long-term treatment.
To test the novel elovanoids the experimental design consisted injecting the compounds into the right cerebral ventricle (5 μg/per rat, ICV), one hour after two hours of an ischemic stroke in rats and following thereafter the neurological behavior (neurological score) during 7 days. The protocol in brief was as follows. The injection was made through a surgically implanted metal canula (Alzet) into the right lateral ventricle. Two days later the right middle cerebral artery (MCA) was occluded for 2 h by means of an intraluminal nylon filament (Belayev et al, Traslational Stroke Research, 2010). Then one hour after the compounds were injected dissolved in sterile cerebrospinal fluid. The occlusion was transient performed as follows. The right common carotid artery was exposed through an incision in the neck and was isolated from surrounding tissues. The distal external carotid artery and pterygopalatine arteries were tied. A 4-cm of 3-0 monofilament nylon suture coated with poly-Lysine was introduced into the internal carotid artery and MCA. The suture position was confirmed by advancing the suture 20-22 mm from the common carotid artery bifurcation. Then, the rats were allowed to awaken from anesthesia and returned to their cages. The degree of stroke injury was assessed by neurological assessment of each rat at 60 min after onset of MCAo. […] After 2 hours of MCA occlusion, the rats were re-anesthetized temperature probes were reinserted and the intraluminal suture was removed. The neck incision was closed with silk sutures, and the animals were allowed free access to food and water. […]

ARPE-19 cells = assay: Oxidative stress induced apoptosis / cell death in ARPE-19 cells; format: cell-based, human; conditions: stressed ARPE-19 cells treated with 5 μm of 15-LOX-D1 inhibitor PD146176
Experimental: (§1) FIG. 5. (A) Effect of PD146176 on VLC-PUFA-inhibited apoptosis induced by OS in ARPE-19 cells. […] It is evident that 32:6 and 34:6 LCAF were able to induce a substantial amount (55 and 48% respectively) of neuroprotection compared to PD 146176 (22%) when the stressed cells were treated with 5 μm of 15-LOX-D1 inhibitor. It can be concluded that since PD146176 is the inhibitor of 15-lipooxygenase enzyme, it might be protecting the stressed RPE cells by accumulating neuroprotective agents inside the cells. (B) Comparison of cytoprotective capacities of NPD1, C32:6 and C34:6 VLC-PUFA on oxidative stress-induced apoptosis in 15-LOX-1 cells. Shown here is the comparison of neuroprotection in a 15-LOX-1-deficient cell line under oxidative stress with 32:6 and 34:6 VLC-PUFA along with NPD1. 32:6 and 34:6 LCAF were able to induce neuroprotection (45% and 40% respectively), as compared to oxidative stress (90%) under this condition. (C) Concentration dependent cytoprotection by C32:6 and C34:6 VLC-PUFA in oxidative-stress induced ARPE-19 cells. A concentration (50-500 nM) kinetic of cytoprotection induced by LCAF 32:6 and 34:6 in RPE cell culture under OS was shown here. […] We decided to use 250 nM concentrations of 32:6 and 34:6 LCAF in subsequent experiments. (D) Selected images of alive and dead cells from this study (control, OS, treatment with C32:6).
(§2) FIG. 5—(A) Effect of PD146176 on VLC-PUFA inhibited apoptosis induced by OS in ARPE-19 cells. […] It is evident that 32:6 and 34:6 LCAF were able to induce a substantial amount (55 and 48% respectively) of neuroprotection compared to PD 146176 (22%) when the stressed cells were treated with 5 μm of 15-LOX-D1 inhibitor. It can be concluded that since PD146176 is the inhibitor of 15-lipooxygenase enzyme, it might be protecting the stressed RPE cells by accumulating neuroprotective agents inside the cells. (B) Comparison of cytoprotective capacities of NPD1, C32:6 and C34:6 VLC-PUFA on oxidative stress-induced apoptosis in 15-LOX-1 cells. Shown here is the comparison of neuroprotection in a 15-LOX-1-deficient cell line under oxidative stress with 32:6 and 34:6 VLC-PUFA along with NPD1. 32:6 and 34:6 VLC-PUFA were able to induce neuroprotection (45% and 40% respectively), as compared to oxidative stress (90%) under this condition. (C) Concentration dependent cytoprotection by C32:6 and C34:6 VLC-PUFA in oxidative-stress induced ARPE-19 cells. A concentration (50-500 nM) kinetic of cytoprotection induced by VLC-PUFA 32:6 and 34:6 in RPE cell culture under OS was shown here. […] We decided to use 250 nM concentrations of 32:6 and 34:6 VLC-PUFA in subsequent experiments. (D) Selected images of alive and dead cells from this study (control, OS, treatment with C32:6).

[2] = tested on: human retinal pigment epithelial (RPE) cells deficient in 15-LOX-D1; assay: Oxidative stress (OS) induced apoptosis / cell death in 15-LOX-1-deficient human RPE cells; format: cell-based
From the text: (§3) FIG. 4. (A) Cytoprotective effects of NPD1 like compounds on OS induced apoptosis. The results shown in this figure compare the cytoprotective capacities of long chain polyunsaturated fatty acids (VLC-PUFA), elovanoids ELV1 and ELV2, and neuroprotectin D1 (NPD1) in human retinal pigment epithelial (RPE) cells deficient in 15-LOX-D1 by measuring the protection of cell deaths induced by oxidative stress (OS) by these compounds. […] (B) Elovanoid precursors protect human retinal pigment epithelial cells deficient in 15-LOX-1, unlike DHA, from oxidative stress conditions.
as §1
as §3, with “Evidence of cytoprotection by 32.6 and 34.6 VLC-PUFA in oxidative-stress induced ARPE-19 cells as detailed in (FIG. 4): (A) Cytoprotective” for “FIG. 4. (A) Cytoprotective”, “capacities of very long chain” for “capacities of long chain”
as §2, with “(D) Selected images of alive and dead cells from this study (control, OS, treatment with C32:6).” left out

SMILES: C[C@]12N[C@H](Cc3ccccc31)c1ccccc12 [MK-801, reference compound]
- effect of MK-801 on protection, MTT assay for cell viability (FIG. 11B) [1]: potentiates protection

SMILES: CC/C=C\C[C@H](O)\C=C/C=C/C=C/[C@H](O)C/C=C\C/C=C\CCCCCCCCCCCCCCC(=O)OC [ELV2-Me, methyl (16Z,19Z,22R,23E,25E,27Z,29S,31Z)-22,29-dihydroxy-tetratriaconta-16,19,23,25,27,31-hexaenoate]
- activity relative to DHA and NPD1, neurological score (FIG. 12) (ischemic stroke (MCAo); 5 μg/per rat ICV): more active than DHA and NPD1; also recorded: greater in vivo potency than DHA or NPD1
- in vivo neuroprotective effect (FIG. 12) (ischemic stroke (MCAo)): potent in vivo neuroprotective effects

SMILES: c1ccc2c(c1)SCc1c-2[nH]c2ccccc12 [PD 146176, reference compound]
- neuroprotection (FIG. 5A) (ARPE-19 cells): 22%

SMILES: CC/C=C\C[C@H](O)\C=C/C=C/C=C/[C@H](O)C/C=C\C/C=C\CCC(=O)O [NPD1, 10R,17S-dihydroxy-docosa-4Z,7Z,11E,13E,15Z,19Z-hexaenoic acid, reference compound]
- protection of cell deaths induced by oxidative stress (FIG. 4A) ([2]; 15-LOX-1-deficient human RPE cells, compared to OS (90%)): 60%
- protection against cell death under oxidative stress conditions (FIG. 4B) ([2]; 15-LOX-D1 cells under oxidative stress): protect against cell death

SMILES: CC/C=C\C[C@H](O)\C=C/C=C/C=C/[C@H](O)C/C=C\C/C=C\CCCCCCCCCCCCCCC(=O)O [ELV2-Na, sodium (16Z,19Z,22R,23E,25E,27Z,29S,31Z)-22,29-dihydroxytetratriaconta-16,19,23,25,27,31-hexaenoate]
- potency of sodium salt versus methyl ester in stroke model (FIG. 12) (ischemic stroke (MCAo); 5 μg/per rat ICV): greater potency
- activity relative to DHA and NPD1, neurological score (FIG. 12) (ischemic stroke (MCAo); 5 μg/per rat ICV): more active than DHA and NPD1; also recorded: greater in vivo potency than DHA or NPD1
- in vivo neuroprotective effect (FIG. 12) (ischemic stroke (MCAo)): potent in vivo neuroprotective effects
